In patent publication US4837218A, “Alkylated bicycloalkaneamines for treatment of neurotoxic injury” (Washington University, priority 1987, dated 1989):

What was measured:
[1] = system: NMA (200 μM) neurotoxicity in chick embryo retina; assay: NMDA/KA Antagonist Assay: prevention of NMA neurotoxicity in chick embryo retina; assay type: cell-based; conditions: Gallus gallus, 0.5 h, 15-day old chick embryo retina, 30 min at 37° C., criterion: complete prevention of toxicity in all specimens, read-out: concentration providing total protection against toxicity of NMA
Experimental: (§1) A 15-day old chick embryo retina, incubated for 30 min. in a balanced salt solution (BSS) containing 1 mM Glu, developed a full lesion resembling that described in the immature mouse retina following s.c. administration of Glu. Other excitotoxin agonists also produce acute lesions within 30 min., each agent being effective at a concentration proportional to its known excitatory and toxic potencies. The pattern of cellular degeneration is restricted in each case to the ganglion cell, inner plexiform and inner nuclear layers, but within these areas certain agonists induce different patterns of degeneration, the differences being most pronounced between NMA and KA. Two agonists were employed in the present test, each at a concentration established previously to be the lowest concentration required to consistently cause a fully-developed retinal lesion: KA (25 μM) and NMA (200 μM). Mecamylamine was tested at various concentrations for its ability to prevent KA or NMA neurotoxicity. Although partial blocking was sometimes observed for antagonist concentrations below the threshold for complete protection, the criterion used for comparing agents for antagonist potency was the concentration required to completely prevent KA or NMA from exerting any toxic activity in any specimen (n>6) studied at that concentration. […]

[2] = system: KA (25 μM) neurotoxicity in chick embryo retina; assay: NMDA/KA Antagonist Assay: prevention of KA neurotoxicity in chick embryo retina; assay type: cell-based; conditions: 15-day old chick embryo retina, 30 min at 37° C., tested at various concentrations
Experimental: as §1

[3] = biological target: PCP receptor (binding of the PCP ligand 3H-TCP); assay: Receptor Binding Assay: inhibition of 3H-TCP binding in frozen brain sections; conditions: frozen brain sections (10 microns), 20 nM 3H-TCP, 45 min at 4° C., Scatchard/Rosenthal analysis
Experimental: Prevention of the neurodegenerative consequences associated with conditions of hypoxia or ischemia may be accomplished with administration of a compound of Formula I. In particular, the compound 3-methylamino-2,2,3-trimethylbicyclo[2.2.1]heptane (mecamylamine) was evaluated in biological assays designed to detect compounds capable of inhibiting hypoxia/ischemia-induced neuronal degeneration. Mecamylamine was evaluated for its ability to inhibit the binding of the PCP ligand tritiated 1-[1-(2-thienyl)cyclohexyl]piperidine [^3 H-TCP].
For receptor binding, frozen brain sections (10 microns) were incubated in […] tris acetate (pH 7.25) containing 0.5 mM magnesium acetate and 20 nM ^3 H-TCP for 45 min. at 4° C. Non-specific binding was assessed with 200 μM PCP. Inhibition of ^3 H-TCP binding was studied by including potential inhibitors in the ^3 H-TCP incubation at concentrations from 10 nM to 1 mM. Dissociation and inhibition constants were calculated by Scatchard/Rosenthal analysis of data obtained by liquid scintillation counting of whole sections.

## CNC1(C)C2CCC(C2)C1(C)C (stereo not drawn) [mecamylamine, 3-(methylamino)-2,2,3-trimethylbicyclo[2.2.1]heptane]
[1]
  EC100: 100 µM
[2]
  blocking of KA toxicity: not observed
[3]
  Ki: 122 µM
